# Measured values from article PMC8286840, “Identifying SARS-CoV-2 antiviral compounds by screening for small molecule inhibitors of Nsp3 papain-like protease” (Biochemical Journal, 2021).
# Structures can show the parent of a compound that is named as a salt. Where two headings read alike, the source gives them in different places.
# Columns and labels:
# [1] = molecular target: T1, SARS-CoV-2 PLpro (nsp3 1564–1878) (Severe acute respiratory syndrome coronavirus 2, UniProt P0DTD1); experiment: biochemical; set-up: FRET-quenched peptide (Pro3) cleavage by PLpro, 10 min pre-incubation, slope over 20 min, normalised to no-compound control; conditions: high concentration screen, read-out: % of control remaining
# [2] = molecular target: T1, SARS-CoV-2 PLpro (nsp3 1564–1878); experiment: biochemical; set-up: FRET-quenched peptide (Pro3) cleavage by PLpro, 10 min pre-incubation, slope over 20 min, normalised to no-compound control; conditions: low concentration screen, read-out: % of control remaining
structure (smiles),measurement,setting,value
CCOc1cc(N)c(Cl)cc1C(=O)NCC1CN(Cc2ccc(F)cc2)CCO1 (centres unmarked) [Mosapride citrate],remaining activity at 3.75 µM,[1]; Well no.=4807,103%
same,remaining activity at 1.25 µM,[2]; Well no.=4807,101%
C[C@@H]1O[C@H](C[N+](C)(C)C)C[C@H]1O (racemic),remaining activity at 3.75 µM,[1]; Well no.=1037,98.2%
same,remaining activity at 1.25 µM,[2]; Well no.=1037,97.2%
Cn1c(=N)ccn([C@@H]2O[C@H](CO)[C@@H](O)[C@H]2O)c1=O [3-Methylcytidine],remaining activity at 3.75 µM,[1]; Well no.=7960,98.7%
same,remaining activity at 1.25 µM,[2]; Well no.=7960,97.2%
CN(C)CCCC1(c2ccc(F)cc2)OCc2cc(C#N)ccc21 (centres unmarked) [Citalopram hydrobromide],remaining activity at 3.75 µM,[1]; Well no.=90,100%
same,remaining activity at 1.25 µM,[2]; Well no.=90,95%
CCCCCCCCCCCCCCCCCCc1ccc(C(=O)/C=C/C(=O)O)cc1 [(2E)-4-(4-octadecylphenyl)-4-oxo-2-butenoic acid],remaining activity at 3.75 µM,[1]; Well no.=5554,99.3%
same,remaining activity at 1.25 µM,[2]; Well no.=5554,97.9%
COc1cc2nccc(Oc3ccc(NC(=O)Nc4cc(C)on4)c(Cl)c3)c2cc1OC [Tivozanib],remaining activity at 3.75 µM,[1]; Well no.=2932,99%
same,remaining activity at 1.25 µM,[2]; Well no.=2932,96.1%
Nc1c(O)cccc1C(=O)O [3-Hydroxyanthranilic acid],remaining activity at 3.75 µM,[1]; Well no.=6535,91.9%
same,remaining activity at 1.25 µM,[2]; Well no.=6535,102%
CCCCOCCOc1ccc(-c2ccc3c(c2)/C=C(/C(=O)Nc2ccc([S@@+]([O-])Cc4cncn4CCC)cc2)CCCN3CC(C)C)cc1 [Cenicriviroc],remaining activity at 3.75 µM,[1]; Well no.=8515,105%
same,remaining activity at 1.25 µM,[2]; Well no.=8515,104%
CCOc1ccc2ccccc2c1C(=O)N[C@@H]1C(=O)N2[C@@H]1SC(C)(C)[C@@H]2C(=O)O [Nafcillin (sodium monohydrate)],remaining activity at 3.75 µM,[1]; Well no.=8660,98.1%
same,remaining activity at 1.25 µM,[2]; Well no.=8660,99%
CO/N=C(\C(=O)N[C@@H]1C(=O)N2C(C(=O)O)=C(Cn3ccc(=N)n3CCO)CS[C@H]12)c1csc(N)n1 [Cefoselis sulfate],remaining activity at 3.75 µM,[1]; Well no.=5199,100%
same,remaining activity at 1.25 µM,[2]; Well no.=5199,96.6%
N[C@H](C(=O)O)c1cc(O)no1 (racemic),remaining activity at 3.75 µM,[1]; Well no.=819,98.7%
same,remaining activity at 1.25 µM,[2]; Well no.=819,98.4%
CC1=NN=C(c2ccc(N)cc2)c2cc3c(cc2C1)OCO3 [GYKI 52466 hydrochloride],remaining activity at 3.75 µM,[1]; Well no.=748,92.5%
same,remaining activity at 1.25 µM,[2]; Well no.=748,92.9%
CCCC[C@@H](NC(=O)[C@@H](Cc1cn(C(=O)OC)c2ccccc12)NC(=O)[C@H](CC(C)(C)C)NC(=O)N1[C@H](C)CCC[C@@H]1C)C(=O)O [BQ-788 (sodium salt)],remaining activity at 3.75 µM,[1]; Well no.=8560,101%
same,remaining activity at 1.25 µM,[2]; Well no.=8560,108%
NS(=O)(=O)c1cc2c(cc1Cl)NC(C(Cl)Cl)NS2(=O)=O (centres unmarked) [Trichloromethiazide],remaining activity at 3.75 µM,[1]; Well no.=2072,100%
same,remaining activity at 1.25 µM,[2]; Well no.=2072,101%
C[Se]C[C@H](N)C(=O)O [Se-(methyl)selenocysteine hydrochloride],remaining activity at 3.75 µM,[1]; Well no.=1124,95.6%
same,remaining activity at 1.25 µM,[2]; Well no.=1124,97.3%
O=C(O)CCc1ccccc1 [Hydrocinnamic acid],remaining activity at 3.75 µM,[1]; Well no.=6731,96.7%
same,remaining activity at 1.25 µM,[2]; Well no.=6731,98.5%
CCSC(=N)N [S-Ethylisothiourea hydrobromide],remaining activity at 3.75 µM,[1]; Well no.=459,101%
same,remaining activity at 1.25 µM,[2]; Well no.=459,102%
N[C@@H](Cc1ccc(O)c(Cl)c1)C(=O)O [3-Chloro-L-tyrosine],remaining activity at 3.75 µM,[1]; Well no.=7491,101%
same,remaining activity at 1.25 µM,[2]; Well no.=7491,101%
OC(c1ccccc1)(c1ccccc1)C1CCNCC1 [Azacyclonol],remaining activity at 3.75 µM,[1]; Well no.=5068,103%
same,remaining activity at 1.25 µM,[2]; Well no.=5068,97.2%
CC(C)Cc1ccc(C(C)C(=O)NO)cc1 (centres unmarked) [Ibuproxam],remaining activity at 3.75 µM,[1]; Well no.=4091,94.9%
same,remaining activity at 1.25 µM,[2]; Well no.=4091,95%
CCN1CCC[C@H]1CNC(=O)c1cc(S(N)(=O)=O)ccc1OC [(-)-Sulpiride],remaining activity at 3.75 µM,[1]; Well no.=1364,99.2%
same,remaining activity at 1.25 µM,[2]; Well no.=1364,101%
C[C@]12CCC(=O)C=C1CC[C@@H]1[C@@H]2CC[C@@]2(C)[C@H]1CC[C@]2(O)C(=O)CO [Cortodoxone],remaining activity at 3.75 µM,[1]; Well no.=7330,98%
same,remaining activity at 1.25 µM,[2]; Well no.=7330,98.9%
O=c1cc(-c2ccc(O)cc2)oc2cc(O[C@@H]3O[C@H](CO)[C@@H](O)[C@H](O)[C@H]3O)cc(O)c12 [Apigenin-7-glucoside],remaining activity at 3.75 µM,[1]; Well no.=3635,93.3%
same,remaining activity at 1.25 µM,[2]; Well no.=3635,97.8%
CC(C(O)c1ccc(O)cc1)N1CCC(Cc2ccccc2)CC1 (centres unmarked) [Ifenprodil tartrate],remaining activity at 3.75 µM,[1]; Well no.=867,103%
same,remaining activity at 3.75 µM,[1]; Well no.=1685,104%
same,remaining activity at 1.25 µM,[2]; Well no.=867,103%
same,remaining activity at 1.25 µM,[2]; Well no.=1685,102%
O=C1Nc2ccccc2/C1=C1/Nc2ccccc2C1=O [Indirubin],remaining activity at 3.75 µM,[1]; Well no.=3771,101%
same,remaining activity at 1.25 µM,[2]; Well no.=3771,95.4%
CC1(C)C(=O)N(CCN2CCC(C(=O)c3ccc(F)cc3)CC2)c2ccccc21 [LY310762],remaining activity at 3.75 µM,[1]; Well no.=7237,100%
same,remaining activity at 1.25 µM,[2]; Well no.=7237,102%
N=C(N)NC(=O)c1nc(Cl)c(N)nc1N [Amiloride],remaining activity at 3.75 µM,[1]; Well no.=1709,99%
same,remaining activity at 1.25 µM,[2]; Well no.=1709,102%
Nc1n[nH]c(N)c1N=Nc1ccc(O)cc1 [Cdk9 Inhibitor II],remaining activity at 3.75 µM,[1]; Well no.=2395,103%
same,remaining activity at 1.25 µM,[2]; Well no.=2395,104%
O=C(O)/C=C/c1cnc[nH]1 [4-Imidazoleacrylic acid],remaining activity at 3.75 µM,[1]; Well no.=1428,98.1%
same,remaining activity at 1.25 µM,[2]; Well no.=1428,95.1%
O=C(O)Cc1c[nH]c2ccccc12 [Indole-3-acetic acid],remaining activity at 3.75 µM,[1]; Well no.=3667,104%
same,remaining activity at 1.25 µM,[2]; Well no.=3667,101%
C[C@@H](O[C@H]1OCCN(Cc2nn(P(=O)(O)O)c(=O)[nH]2)[C@H]1c1ccc(F)cc1)c1cc(C(F)(F)F)cc(C(F)(F)F)c1 [Fosaprepitant dimeglumine],remaining activity at 3.75 µM,[1]; Well no.=5269,95.4%
same,remaining activity at 1.25 µM,[2]; Well no.=5269,97.5%
C[N@+]1(CC2CC2)CC[C@]23c4c5ccc(O)c4O[C@H]2C(=O)CC[C@@]3(O)[C@H]1C5 [Methylnaltrexone (Bromide)],remaining activity at 3.75 µM,[1]; Well no.=8091,102%
same,remaining activity at 1.25 µM,[2]; Well no.=8091,97.4%
C=CCN1CC[C@]23CCCC[C@H]2[C@H]1Cc1ccc(O)cc13 [Levallorphan tartrate],remaining activity at 3.75 µM,[1]; Well no.=1012,99.9%
same,remaining activity at 1.25 µM,[2]; Well no.=1012,99.1%
"COc1cc2ncn(-c3cc(OCc4ccccc4C(F)(F)F)c(C(N)=O)s3)c2cc1OC [GW 843682X - 5-(5,6-Dimethoxy-1H-benzimidazol-1-yl)-3-[[2-(trifluoromethyl)phenyl]methoxy]-2-thiophenecarboxamide]",remaining activity at 3.75 µM,[1]; Well no.=2668,96.9%
same,remaining activity at 1.25 µM,[2]; Well no.=2668,92.6%
Nc1ncnc2c1ncn2C1CCCO1 (centres unmarked) [SQ22536],remaining activity at 3.75 µM,[1]; Well no.=6236,104%
same,remaining activity at 3.75 µM,[1]; Well no.=7958,93.7%
same,remaining activity at 1.25 µM,[2]; Well no.=6236,103%
same,remaining activity at 1.25 µM,[2]; Well no.=7958,92.2%
